# Results from patent publication US4173629A, “Antibiotic S 31794/F-1” (Sandoz Ltd., priority 1975, dated 1979).
# *1 amine or outer side, *2 acyl side, *3 side chain or, on linkers, in order; H or OH if unused. Where a SMILES comes first, the peptide text is derived from it. Bridges are numbered along the chain shown (N, C = ends). [ ]: non-standard residue; d: D form. The star is where a group is joined. Orn(4R-OH,5R-OH) = O=C([C@H](C[C@@H](O)[C@@H](O)N[*:3])N[*:1])[*:2]; hTyr(3S-OH,4S-OH) = N[C@H](C(=O)O)[C@H](O)[C@@H](O)c1ccc(O)cc1; Pro(3S-OH,4S-Me) = C[C@H]1CN[C@H](C(=O)O)[C@H]1O; Gln(3R-OH) = NC(=O)C[C@@H](O)[C@H](N)C(=O)O; Hyp = O=C(O)[C@@H]1C[C@@H](O)CN1; Myristoyl = CCCCCCCCCCCCCC(=O)*
# Tests used:
# [1] = Stability; assay type: physicochemical
# [2] = system: yeast and fungi, particularly Candida strains; assay: activity spectrum, yeast and fungi; assay type: cell-based
# Description: (§1) The MIC (minimum inhibiting concentration) values are obtained in the well known series dilution test. The incubation was effected in a malt extract medium (2%) having a pH of 5.2-5.4 at 27° C. for 48 to 72 hours. The test strains are well known and have been deposited in the fungi collection of the firm Sandoz, Basel, where they are available for examination.
# [3] = system: Candida albicans; assay: MIC, series dilution test; assay type: cell-based; details: malt extract medium (2%), pH 5.2-5.4, 27° C., 48 to 72 hours
# Description: as §1
# [4] = system: Aspergillus niger; assay: MIC, series dilution test; assay type: cell-based; details: malt extract medium (2%), pH 5.2-5.4, 27° C., 48 to 72 hours
# Description: as §1
# [5] = system: Blastomyces dermatitidis; assay: MIC, series dilution test; assay type: cell-based; details: malt extract medium (2%), pH 5.2-5.4, 27° C., 48 to 72 hours
# Description: as §1
# [6] = system: Candida albicans 5897; assay: MIC, series dilution test; assay type: cell-based; details: malt extract medium (2%), pH 5.2-5.4, 27° C., 48 to 72 hours
# Description: as §1
# [7] = system: Candida albicans Blast. res.; assay: MIC, series dilution test; assay type: cell-based; details: malt extract medium (2%), pH 5.2-5.4, 27° C., 48 to 72 hours
# Description: as §1
# [8] = system: Candida tropicalis CK 4; assay: MIC, series dilution test; assay type: cell-based; details: malt extract medium (2%), pH 5.2-5.4, 27° C., 48 to 72 hours
# Description: as §1
# [9] = system: Neurospora crassa; assay: MIC, series dilution test; assay type: cell-based; details: malt extract medium (2%), pH 5.2-5.4, 27° C., 48 to 72 hours
# Description: as §1
# [10] = system: Microsporum canis; assay: MIC, series dilution test; assay type: cell-based; details: malt extract medium (2%), pH 5.2-5.4, 27° C., 48 to 72 hours
# Description: as §1
# [11] = system: Candida krusei; assay: MIC, series dilution test; assay type: cell-based; details: malt extract medium (2%), pH 5.2-5.4, 27° C., 48 to 72 hours
# Description: as §1
# [12] = system: Sporotrichum schenkii; assay: MIC, series dilution test; assay type: cell-based; details: malt extract medium (2%), pH 5.2-5.4, 27° C., 48 to 72 hours
# Description: as §1
# [13] = system: Aspergillus fumigatus; assay: MIC, series dilution test; assay type: cell-based; details: malt extract medium (2%), pH 5.2-5.4, 27° C., 48 to 72 hours
# Description: as §1
# [14] = system: Candida albicans 439; assay: MIC, series dilution test; assay type: cell-based; details: malt extract medium (2%), pH 5.2-5.4, 27° C., 48 to 72 hours
# Description: as §1
# [15] = system: Candida tropicalis; assay: MIC, series dilution test; assay type: cell-based; details: malt extract medium (2%), pH 5.2-5.4, 27° C., 48 to 72 hours
# Description: as §1
# [16] = system: Trichophyton quinckeanum; assay: MIC, series dilution test; assay type: cell-based; details: malt extract medium (2%), pH 5.2-5.4, 27° C., 48 to 72 hours
# Description: as §1
# [17] = system: Candida albicans H 12; assay: MIC, series dilution test; assay type: cell-based; details: malt extract medium (2%), pH 5.2-5.4, 27° C., 48 to 72 hours
# Description: as §1
# [18] = system: Trichophyton mentagrophytes; assay: MIC, series dilution test; assay type: cell-based; details: malt extract medium (2%), pH 5.2-5.4, 27° C., 48 to 72 hours
# Description: as §1
# [19] = system: Curvularia lunata; assay: MIC, series dilution test; assay type: cell-based; details: malt extract medium (2%), pH 5.2-5.4, 27° C., 48 to 72 hours
# Description: as §1
# [20] = system: usual gram-positive and gram-negative bacteria; assay: activity spectrum, bacteria; assay type: cell-based
# [21] = Solubility; assay type: physicochemical
structure (smiles),measurement,setting,value
"CCCCCCCCCCCCCC(=O)N[C@H]1C[C@@H](O)[C@@H](O)NC(=O)[C@@H]2[C@@H](O)[C@@H](C)CN2C(=O)[C@H]([C@H](O)CC(N)=O)NC(=O)[C@H]([C@H](O)[C@@H](O)c2ccc(O)cc2)NC(=O)[C@@H]2C[C@@H](O)CN2C(=O)[C@H]([C@@H](C)O)NC1=O [S 31794/F-1] (Myristoyl-[Orn(4R-OH,5R-OH)]T[Hyp][hTyr(3S-OH,4S-OH)][Gln(3R-OH)][Pro(3S-OH,4S-Me)]; lactam 1-C)",Stability,[1]; alkaline or strong acidic conditions,"decomposes, losing its anti-fungal activity"
same,Stability,[1]; aqueous methanol at pH 3-7.5,stable
same,"effect against yeast and fungi, particularly against Candida strains",[2],pronounced effect
same,MIC (minimum inhibiting concentration),[3],0.3 µg/mL
same,MIC (minimum inhibiting concentration),[4],100 µg/mL
same,MIC (minimum inhibiting concentration),[5],100 µg/mL
same,MIC (minimum inhibiting concentration),[6],0.3 µg/mL
same,MIC (minimum inhibiting concentration),[7],0.03 µg/mL
same,MIC (minimum inhibiting concentration),[8],0.01 µg/mL
same,MIC (minimum inhibiting concentration),[9],> 100 µg/mL
same,MIC (minimum inhibiting concentration),[10],100 µg/mL
same,MIC (minimum inhibiting concentration),[11],1 µg/mL
same,MIC (minimum inhibiting concentration),[12],> 100 µg/mL
same,MIC (minimum inhibiting concentration),[13],32 µg/mL
same,MIC (minimum inhibiting concentration),[14],0.03 µg/mL
same,MIC (minimum inhibiting concentration),[15],0.3 µg/mL
same,MIC (minimum inhibiting concentration),[16],> 100 µg/mL
same,MIC (minimum inhibiting concentration),[17],0.3 µg/mL
same,MIC (minimum inhibiting concentration),[18],32 µg/mL
same,MIC (minimum inhibiting concentration),[19],> 100 µg/mL
same,effect against the usual gram-positive and gram-negative bacteria,[20],does not exhibit a significant effect
same,Solubility,"[21]; in methanol, ethanol, pyridine and dimethyl sulphoxide",easily soluble
same,Solubility,"[21]; in water, chloroform, ethyl acetate, diethyl ether, benzene and hexane",difficulty soluble
